target: T1, human full-length MKNK1 (Homo sapiens, UniProt Q9BUB5, T385D); assay: MKNK1 kinase high ATP assay (TR-FRET); format: biochemical; conditions: Table 1; MKNK1 kinase high ATP assay, 2 mM ATP; read-out: MKNK1 IC50
T1 construct: GST (N); purchased Carna Biosciences 02-145; host or cells: insect cells (baculovirus expression system)
Summary of the method: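 Full-length human MKNK1 (T385D) preincubated 15 min at 22 °C with compound in HEPES pH 7.5/MgCl2/DTT buffer; reaction with 2 mM ATP (final) and 0.06 μM biotinylated peptide (final), 30 min at 22 °C.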

T1 sequence (Q9BUB5 1-424 isoform Q9BUB5-2 T344D): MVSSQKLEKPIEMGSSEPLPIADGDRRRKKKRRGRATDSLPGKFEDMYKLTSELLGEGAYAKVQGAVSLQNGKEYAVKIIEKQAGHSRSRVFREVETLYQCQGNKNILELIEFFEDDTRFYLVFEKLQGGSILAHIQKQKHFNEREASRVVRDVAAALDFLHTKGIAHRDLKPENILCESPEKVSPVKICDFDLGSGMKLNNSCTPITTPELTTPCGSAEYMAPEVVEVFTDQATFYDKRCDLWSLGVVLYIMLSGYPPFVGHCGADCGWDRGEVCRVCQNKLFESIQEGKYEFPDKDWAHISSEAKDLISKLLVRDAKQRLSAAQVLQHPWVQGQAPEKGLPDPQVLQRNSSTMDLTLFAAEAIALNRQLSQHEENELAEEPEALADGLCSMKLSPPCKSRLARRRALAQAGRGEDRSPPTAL

| Structure (SMILES) | IC50 |
| --- | --- |
| C[C@@H]1COCCN1C(=O)[C@H]1CCc2c(sc3ncnc(Nc4cc5cn[nH]c5cc4OCCN4CCCCC4)c23)C1 [Example 116, [(3R)-3-Methylmorpholin-4-yl][(7S)-4-({6-[2-(piperidin-1-yl)ethoxy]-1H-indazol-5-yl}amino)-5,6,7,8-tetrahydro[1]benzothieno[2,3-d]pyrimidin-7-yl]methanone] | 1190 nM |
| C[C@H]1COCCN1C(=O)[C@H]1CCc2c(sc3ncnc(Nc4cc5cn[nH]c5cc4OCCN(C)C)c23)C1 [Example 117, [(7S)-4-({6-[2-(Dimethylamino)ethoxy]-1H-indazol-5-yl}amino)-5,6,7,8-tetrahydro[1]benzothieno[2,3-d]pyrimidin-7-yl][(3S)-3-methylmorpholin-4-yl]methanone] | 20 nM |
| C[C@H]1COCCN1C(=O)[C@H]1CCc2c(sc3ncnc(Nc4cc5cn[nH]c5cc4OCCN4CCCC4)c23)C1 [Example 118, [(3S)-3-Methylmorpholin-4-yl][(7S)-4-({6-[2-(pyrrolidin-1-yl)ethoxy]-1H-indazol-5-yl}amino)-5,6,7,8-tetrahydro[1]benzothieno[2,3-d]pyrimidin-7-yl]methanone] | 92.3 nM |
| C[C@H]1COCCN1C(=O)[C@H]1CCc2c(sc3ncnc(Nc4cc5cn[nH]c5cc4OCCN4CCCCC4)c23)C1 [Example 119, [(3S)-3-Methylmorpholin-4-yl][(7S)-4-({6-[2-(piperidin-1-yl)ethoxy]-1H-indazol-5-yl}amino)-5,6,7,8-tetrahydro[1]benzothieno[2,3-d]pyrimidin-7-yl]methanone] | 757 nM |
| COc1cc2[nH]ncc2cc1Nc1ncnc2sc3c(c12)CC[C@H](C(=O)N1C[C@@H]2C[C@H]1CN2C)C3 [Example 120, {(7S)-4-[(6-Methoxy-1H-indazol-5-yl)amino]-5,6,7,8-tetrahydro[1]benzothieno[2,3-d]pyrimidin-7-yl}[(1S,4S)-5-methyl-2,5-diazabicyclo[2.2.1]hept-2-yl]methanone] | 0.2 nM |
| COc1cc2[nH]ncc2cc1Nc1ncnc2sc3c(c12)CC[C@H](C(=O)N1C[C@H]2C[C@@H]1CN2C)C3 [Example 121, {(7S)-4-[(6-Methoxy-1H-indazol-5-yl)amino]-5,6,7,8-tetrahydro[1]benzothieno[2,3-d]pyrimidin-7-yl}[(1R,4R)-5-methyl-2,5-diazabicyclo[2.2.1]hept-2-yl]methanone] | 0.3 nM |
| CCOc1cc2[nH]ncc2cc1Nc1ncnc2sc3c(c12)CC[C@H](C(=O)N1CCC(N(C)C)CC1)C3 [Example 122, [4-(Dimethylamino)piperidin-1-yl]{(7S)-4-[(6-ethoxy-1H-indazol-5-yl)amino]-5,6,7,8-tetrahydro[1]benzothieno[2,3-d]pyrimidin-7-yl}methanone] | 0.2 nM |
| COc1cc2[nH]ncc2cc1Nc1ncnc2sc3c(c12)CC[C@H](C(=O)N(C)CCC(F)(F)F)C3 [Example 123, (7S)-4-[(6-Methoxy-1H-indazol-5-yl)amino]-N-methyl-N-(3,3,3-trifluoropropyl)-5,6,7,8-tetrahydro[1]benzothieno[2,3-d]pyrimidine-7-carboxamide] | 0.4 nM |
| COc1cc2[nH]ncc2cc1Nc1ncnc2sc3c(c12)CC[C@H](C(=O)N(C)CC(C)(C)O)C3 [Example 124, (7S)—N-(2-Hydroxy-2-methylpropyl)-4-[(6-methoxy-1H-indazol-5-yl)amino]-N-methyl-5,6,7,8-tetrahydro[1]benzothieno[2,3-d]pyrimidine-7-carboxamide] | 0.3 nM |
| CC(C)Oc1cc2[nH]ncc2cc1Nc1ncnc2sc3c(c12)CC[C@H](C(=O)N(C)CCC(F)(F)F)C3 [Example 125, (7S)—N-Methyl-4-{[6-(propan-2-yloxy)-1H-indazol-5-yl]amino}-N-(3,3,3-trifluoropropyl)-5,6,7,8-tetrahydro[1]benzothieno[2,3-d]pyrimidine-7-carboxamide] | 0.4 nM |
| CC(C)Oc1cc2[nH]ncc2cc1Nc1ncnc2sc3c(c12)CC[C@H](C(=O)N(C)CC(C)(C)O)C3 [Example 126, (7S)—N-(2-Hydroxy-2-methylpropyl)-N-methyl-4-{[6-(propan-2-yloxy)-1H-indazol-5-yl]amino}-5,6,7,8-tetrahydro[1]benzothieno[2,3-d]pyrimidine-7-carboxamide] | 0.3 nM |
| CC(C)N(C(=O)[C@H]1CCc2c(sc3ncnc(Nc4ccc5[nH]ncc5c4)c23)C1)C(C)C [Example 127, (7S)-4-(1H-Indazol-5-ylamino)-N,N-di(propan-2-yl)-5,6,7,8-tetrahydro[1]benzothieno[2,3-d]pyrimidine-7-carboxamide] | 6.5 nM |
| C=CCN(C)c1cc2[nH]ncc2cc1Nc1ncnc2sc3c(c12)CC[C@H](C(=O)N(C)C)C3 [Example 128, (7S)—N,N-Dimethyl-4-({6-[methyl(prop-2-en-1-yl)amino]-1H-indazol-5-yl}amino)-5,6,7,8-tetrahydro[1]benzothieno[2,3-d]pyrimidine-7-carboxamide] | 1 nM |
| CC(C)Oc1cc2[nH]ncc2c(F)c1Nc1ncnc2sc3c(c12)CC[C@H](C(=O)N(C)C)C3 [Example 129, (7S)-4-{[4-Fluoro-6-(propan-2-yloxy)-1H-indazol-5-yl]amino}-N,N-dimethyl-5,6,7,8-tetrahydro[1]benzothieno[2,3-d]pyrimidine-7-carboxamide] | 8.9 nM |
| C[C@@H]1COCCN1C(=O)[C@H]1CCc2c(sc3ncnc(Nc4cc5cn[nH]c5cc4OCCN)c23)C1 [Example 130, [(7S)-4-{[6-(2-Aminoethoxy)-1H-indazol-5-yl]amino}-5,6,7,8-tetrahydro[1]benzothieno[2,3-d]pyrimidin-7-yl][(3R)-3-methylmorpholin-4-yl]methanone] | 0.9 nM |
| C[C@H]1COCCN1C(=O)[C@H]1CCc2c(sc3ncnc(Nc4cc5cn[nH]c5cc4OCCN)c23)C1 [Example 131, [(7S)-4-{[6-(2-Aminoethoxy)-1H-indazol-5-yl]amino}-5,6,7,8-tetrahydro[1]benzothieno[2,3-d]pyrimidin-7-yl][(3S)-3-methylmorpholin-4-yl]methanone] | 0.4 nM |
| CN(C)C1CCN(c2cc3[nH]ncc3cc2Nc2ncnc3sc4c(c23)CC[C@H](C(=O)N2CCC2)C4)CC1 [Example 132, Azetidin-1-yl[(7S)-4-({6-[4-(dimethylamino)piperidin-1-yl]-1H-indazol-5-yl}amino)-5,6,7,8-tetrahydro[1]benzothieno[2,3-d]pyrimidin-7-yl]methanone] | 27.2 nM |
| CN(C)C1CCN(c2cc3[nH]ncc3cc2Nc2ncnc3sc4c(c23)CC[C@H](C(=O)N2CCOCC2)C4)CC1 [Example 133, [(7S)-4-({6-[4-(Dimethylamino)piperidin-1-yl]-1H-indazol-5-yl}amino)-5,6,7,8-tetrahydro[1]benzothieno[2,3-d]pyrimidin-7-yl](morpholin-4-yl)methanone] | 37.9 nM |
| CN(C)CCOc1cc2[nH]ncc2cc1Nc1ncnc2sc3c(c12)CC[C@H](C(=O)N1CCC(N(C)C)CC1)C3 [Example 134, [(7S)-4-({6-[2-(Dimethylamino)ethoxy]-1H-indazol-5-yl}amino)-5,6,7,8-tetrahydro[1]benzothieno[2,3-d]pyrimidin-7-yl][4-(dimethylamino)piperidin-1-yl]methanone] | 8.3 nM |
| C[C@H]1COCCN1C(=O)[C@H]1CCc2c(sc3ncnc(Nc4cc5cn[nH]c5cc4N4CCC(N(C)C)CC4)c23)C1 [Example 135, [(7S)-4-({6-[4-(Dimethylamino)piperidin-1-yl]-1H-indazol-5-yl}amino)-5,6,7,8-tetrahydro[1]benzothieno[2,3-d]pyrimidin-7-yl][(3S)-3-methylmorpholin-4-yl]methanone] | 14.1 nM |
| C[C@@H]1COCCN1C(=O)[C@H]1CCc2c(sc3ncnc(Nc4cc5cn[nH]c5cc4N4CCC(N(C)C)CC4)c23)C1 [Example 136, [(7S)-4-({6-[4-(Dimethylamino)piperidin-1-yl]-1H-indazol-5-yl}amino)-5,6,7,8-tetrahydro[1]benzothieno[2,3-d]pyrimidin-7-yl][(3R)-3-methylmorpholin-4-yl]methanone] | 24 nM |
| C[C@@H]1CN(C(=O)[C@H]2CCc3c(sc4ncnc(Nc5cc6cn[nH]c6cc5N5CCC(N(C)C)CC5)c34)C2)C[C@H](C)O1 [Example 137, [(7S)-4-({6-[4-(Dimethylamino)piperidin-1-yl]-1H-indazol-5-yl}amino)-5,6,7,8-tetrahydro[1]benzothieno[2,3-d]pyrimidin-7-yl][(2R,6S)-2,6-dimethylmorpholin-4-yl]methanone] | 33 nM |
| CN(C)C1CCN(C(=O)[C@H]2CCc3c(sc4ncnc(Nc5cc6cn[nH]c6cc5OCCN5CCCC5)c34)C2)CC1 [Example 138, [4-(Dimethylamino)piperidin-1-yl][(7S)-4-({6-[2-(pyrrolidin-1-yl)ethoxy]-1H-indazol-5-yl}amino)-5,6,7,8-tetrahydro[1]benzothieno[2,3-d]pyrimidin-7-yl]methanone] | 192 nM |
| CN(C)C1CCN(C(=O)[C@H]2CCc3c(sc4ncnc(Nc5cc6cn[nH]c6cc5OCCN5CCCCC5)c34)C2)CC1 [Example 139, [4-(Dimethylamino)piperidin-1-yl][(7S)-4-({6-[2-(piperidin-1-yl)ethoxy]-1H-indazol-5-yl}amino)-5,6,7,8-tetrahydro[1]benzothieno[2,3-d]pyrimidin-7-yl]methanone] | 95 nM |
| C[C@H](CN)Oc1cc2[nH]ncc2cc1Nc1ncnc2sc3c(c12)CC[C@H](C(=O)N1CCOC[C@@H]1C)C3 [Example 140, {(7S)-4-[(6-{[(2R)-1-Aminopropan-2-yl]oxy}-1H-indazol-5-yl)amino]-5,6,7,8-tetrahydro[1]benzothieno[2,3-d]pyrimidin-7-yl}[(3S)-3-methylmorpholin-4-yl]methanone] | 0.4 nM |
| C[C@@H](CN)Oc1cc2[nH]ncc2cc1Nc1ncnc2sc3c(c12)CC[C@H](C(=O)N(C)C)C3 [Example 141, (7S)-4-[(6-{[(25)-1-Aminopropan-2-yl]oxy}-1H-indazol-5-yl)amino]-N,N-dimethyl-5,6,7,8-tetrahydro[1]benzothieno[2,3-d]pyrimidine-7-carboxamide] | 3.4 nM |

From patent US20160297833A1, “THIENOPYRIMIDINES AS MKNK1 AND MKNK2 INHIBITORS” (BAYER PHARMA AKTIENGESELLSCHAFT, priority 2013, published 2016)
